Reference: US12304912B2, “Fused bicyclic RAF inhibitors and methods for use thereof” (Jazz Pharmaceuticals Ireland Limited, priority 2020, dated 2025)
Counter-ions that a name gives are not always drawn. Like-named read-outs stand apart in the source and are kept apart here.

Columns and labels:
[1] = Microsomal stability assay, mouse liver microsomes (MLM); format: in vitro ADME; details: 0.5 mg/mL protein, 1 μM substrate
Outline: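 Substrate depletion: 1 μM compound incubated at 37° C. with cryopreserved mouse or human liver microsomes at 0.5 mg·mL^−1 protein. Timed aliquots quenched in ice-cold organic solvent and measured by LC-MS/MS; t1/2 and CLint derived from the slope of ln % remaining versus time.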

[2] = Plasma protein binding assay, mouse plasma (mPPB); format: in vitro ADME; details: 5 μM
Outline: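 Equilibrium dialysis of 5 μM compound in previously frozen human or mouse plasma against phosphate buffer, 4 h at 37 °C. Both chambers quantified by LC-MS/MS; % free = (1−((PC−PF)/PC))×100.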

[3] = tested on: constitutive ERK phosphorylation in HCT-116 cells; assay: HCT-116 AlphaLISA SureFire pERK1/2 cellular assay; format: cell-based, human; details: HCT116 cells, 2 hr; for IC50: Homo sapiens, HCT-116, read-out: pERK HCT116 (2 hr) Abs pIC50 (converted)
Method: HCT-116 AlphaLISA SureFire pERK1/2 Cellular Assay […] […] Assay read outs took place 2 or 24 hours after dosing with compounds. On the first day, HCT-116 cells were harvested, resuspended in growth medium (McCoys5A with Glutamax (Life Technologies 36600021) and 10% heat-inactivated fetal bovine serum (Sigma F9665)), and counted. Cells were plated in 100 μl per well in each well of a 96-well culture dish (Sigma CLS3598) to a final density of 30,000 (2 hr read) or 15,000 (24 hr read) cells per well and incubated over night at 37° C. and 5% CO2. On day 2, the growth medium was exchanged for dosing medium (McCoys5A with Glutamax (Life Technologies 36600021) and 1% heat-inactivated fetal bovine serum (Sigma F9665)) and the cells were dosed with compounds to produce a 10-point dose response, where the top concentration was 1 μM and subsequent concentrations were at 1/3 log dilution intervals. A matched DMSO control was included. The cells were subsequently incubated for either 2 or 24 hours at 37° C. and 5% CO2. After incubation, media was removed and the cells were incubated with lysis buffer containing phosphatase inhibitors for 15 minutes at room temperature. Cell lysates were transferred to a 12 area 96 well white Optiplate™ (Perkin Elmer 6005569) and incubated with anti-mouse IgG acceptor beads, a biotinylated anti-ERK1/2 rabbit antibody recognizing both phosphorylated and non-phosphorylated ERK1/2, a mouse antibody targeted to the Thr202/Tyr204 epitope and recognizing phosphorylated ERK proteins only, and streptavidin-coated donor beads. The biotinylated antibody binds to the streptavidin-coated donor beads and the phopsho-ERK1/2 antibody binds to the acceptor beads. […] Both antibodies bound to phosphorylated ERK proteins, bringing the donor and acceptor beads into close proximity. All data were analyzed using the Dotmatics or GraphPad Prism software packages. Inhibition of ERK phosphorylation was assessed by determination of the absolute IC50 value, which is defined as the concentration of compound required to decrease the level of phosphorylated ERK proteins by 50% when compared to DMSO control.

[4] = equilibrium dialysis 4 hours 37° C.
[5] = equilibrium dialysis 4 hours at 37° C.

In the case of `O=C1CCc2c(Oc3ccc4c(c3)CC(c3nc5cc(C(F)(F)F)ncc5[nH]3)CO4)ccnc2N1` (racemic) [Compound 32], the microsomal CLint at 1 μM [1] is reported as 8.3 µL/min/mg, the “mPPB (% free)” value [2, 4] is reported as 3.2 % free and the IC50 ([3]; absolute IC50) is reported as 229 nM.
In the case of `O=C(Nc1cc(Oc2ccc3c(c2)CC(c2nc(-c4ccccc4)c[nH]2)CO3)ccn1)C1CC1` (racemic) [Compound 136], the “MLM (CLint)” value ([1]; 37° C.) is reported as 277 µL/min/mg, the “mPPB (% free)” value [2, 5] is reported as 0.2 % free and the IC50 ([3]; Abs) is reported as 27.5 nM.
With `O=C1CCc2c(Oc3ccc4c(c3)CC(c3nc(-c5ccnc(C(F)(F)F)c5)c[nH]3)CO4)ccnc2N1` (stereo not drawn) [Compound 8, 5-[3-[4-[2-(trifluoromethyl)-4-pyridyl]-1H-imidazol-2-yl]chroman-6-yl]oxy-3,4-dihydro-1H-1,8-naphthyridin-2-one] the microsomal CLint at 1 μM [1] was 13.9 µL/min/mg, the “mPPB (% free)” value [2, 4] was 1.1 % free and the “mPPB (% free)” value [2, 5] was 1.1 % free. The “pERK HCT116 (2 hr) Abs pIC50” value ([3]; Abs) was 6.76 and the IC50 ([3]; absolute IC50) was 174 nM.
With `O=C1CCc2c(Oc3ccc4c(c3)CC(c3nc(-c5cccc(C(F)(F)F)c5)c[nH]3)CO4)ccnc2N1` (stereo not drawn) [Compound 12, 5-[3-[4-[3-(trifluoromethyl)phenyl]-1H-imidazol-2-yl]chroman-6-yl]oxy-3,4-dihydro-1H-1,8-naphthyridin-2-one] the microsomal CLint at 1 μM [1] was 15.7 µL/min/mg, the “mPPB (% free)” value [2, 4] was under 0.1 % free and the IC50 ([3]; absolute IC50) was 257 nM.
With `COc1cc(-c2c[nH]c(C3COc4ccc(Oc5ccnc6c5CCC(=O)N6)cc4C3)n2)ccn1` (stereo not drawn) [Compound 19, 5-[3-[4-(2-methoxy-4-pyridyl)-1H-imidazol-2-yl]chroman-6-yl]oxy-3,4-dihydro-1H-1,8-naphthyridin-2-one] the microsomal CLint at 1 μM [1] was 23 µL/min/mg, the “mPPB (% free)” value [2, 4] was 1.5 % free and the IC50 ([3]; absolute IC50) was 316 nM.
With `O=C1CCc2c(Oc3ccc4c(c3)CC(c3nc5cc(C(F)(F)F)ccc5[nH]3)CO4)ccnc2N1` (stereo not drawn) [Compound 22, 5-[3-[6-(trifluoromethyl)-1H-benzimidazol-2-yl]chroman-6-yl]oxy-3,4-dihydro-1H-1,8-naphthyridin-2-one] the microsomal CLint at 1 μM [1] was 25.1 µL/min/mg, the “mPPB (% free)” value [2, 4] was under 0.1 % free and the IC50 ([3]; absolute IC50) was 141 nM.
In the case of `O=C1CCc2c(Oc3ccc4c(c3)CC(c3nc5cc(F)c(F)cc5[nH]3)CO4)ccnc2N1` (stereo not drawn) [Compound 23], the microsomal CLint at 1 μM [1] is reported as 30.5 µL/min/mg, the “mPPB (% free)” value [2, 4] is reported as 0.5 % free and the IC50 ([3]; absolute IC50) is reported as 316 nM.
With `N#Cc1ccc2[nH]c(C3COc4ccc(Oc5ccnc6c5CCC(=O)N6)cc4C3)nc2c1` (stereo not drawn) [Compound 24] the microsomal CLint at 1 μM [1] was 41.6 µL/min/mg, the “mPPB (% free)” value [2, 4] was 1.9 % free and the IC50 ([3]; absolute IC50) was 407 nM.
For `O=C1CCc2c(Oc3ccc4c(c3)CC(c3nc5cc(Cl)ccc5[nH]3)CO4)ccnc2N1` (stereo not drawn) [Compound 25], the microsomal CLint at 1 μM [1] was 48.5 µL/min/mg, the “mPPB (% free)” value [2, 4] was 1.5 % free and the IC50 ([3]; absolute IC50) was 85.1 nM.
For `CN(C)c1ccc2[nH]c(C3COc4ccc(Oc5ccnc6c5CCC(=O)N6)cc4C3)nc2c1` (stereo not drawn) [Compound 26], the microsomal CLint at 1 μM [1] was 89.3 µL/min/mg, the “mPPB (% free)” value [2, 4] was 1 % free and the IC50 ([3]; absolute IC50) was 417 nM.
In the case of `Cc1cc2nc(C3COc4ccc(Oc5ccnc6c5CCC(=O)N6)cc4C3)[nH]c2cc1C` (stereo not drawn) [Compound 29], the microsomal CLint at 1 μM [1] is reported as 77.6 µL/min/mg, the “mPPB (% free)” value [2, 4] is reported as 0.6 % free and the IC50 ([3]; absolute IC50) is reported as 132 nM.
In the case of `O=C1CCc2c(Oc3ccc4c(c3)CN(c3nc(-c5ccccc5)n[nH]3)CC4)ccnc2N1` [Compound 44, 5-[[2-(3-phenyl-1H-1,2,4-triazol-5-yl)-3,4-dihydro-1H-isoquinolin-7-yl]oxy]-3,4-dihydro-1H-1,8-naphthyridin-2-one hydrochloride], the microsomal CLint at 1 μM [1] is reported as 11 µL/min/mg, the “mPPB (% free)” value [2, 4] is reported as 0.9 % free and the IC50 ([3]; absolute IC50) is reported as 537 nM.
For `O=C(Nc1cc(Oc2ccc3c(c2)CC(c2nc(-c4ccccc4)c[nH]2)CO3)ccn1)C1CC1` (stereo not drawn) [Compound 45, N-[4-[3-(4-phenyl-1H-imidazol-2-yl)chroman-6-yl]oxy-2-pyridyl]cyclopropanecarboxamide], the microsomal CLint at 1 μM [1] was 277 µL/min/mg, the “mPPB (% free)” value [2, 4] was 0.2 % free and the IC50 ([3]; absolute IC50) was 27.5 nM.
In the case of `O=C1CCc2c(Oc3ccc4c(c3)CN(C(=O)Nc3ccc(C(F)(F)F)cc3)CC4)ccnc2N1` [Compound 47], the microsomal CLint at 1 μM [1] is reported as 32.5 µL/min/mg, the “mPPB (% free)” value [2, 4] is reported as 0.3 % free and the IC50 ([3]; absolute IC50) is reported as 69.2 nM.
In the case of `O=C1CCc2c(Oc3ccc4c(c3)CN(C(=O)Nc3cccc(C(F)(F)F)c3)CC4)ccnc2N1` [Compound 50], the microsomal CLint at 1 μM [1] is reported as 79 µL/min/mg, the “mPPB (% free)” value [2, 4] is reported as 1.6 % free and the IC50 ([3]; absolute IC50) is reported as 46.8 nM.
For `O=C1CCc2c(Oc3ccc4c(c3)CC(c3nc(-c5ccnc(C(F)F)c5)c[nH]3)CO4)ccnc2N1` (stereo not drawn) [Compound 101, 5-[3-[4-[2-(difluoromethyl)-4-pyridyl]-1H-imidazol-2-yl]chroman-6-yl]oxy-3,4-dihydro-1H-1,8-naphthyridin-2-one], the microsomal CLint at 1 μM ([1]; 37° C.) was 15.2 µL/min/mg, the “mPPB (% free)” value [2, 5] was 1.1 % free and the IC50 ([3]; Abs) was 132 nM.
In the case of `O=C1CCc2c(Oc3ccc4c(c3)CC(c3nc(-c5cncc(C(F)(F)F)c5)c[nH]3)CO4)ccnc2N1` (stereo not drawn) [Compound 103, 5-[3-[4-[5-(trifluoromethyl)-3-pyridyl]-1H-imidazol-2-yl]chroman-6-yl]oxy-3,4-dihydro-1H-1,8-naphthyridin-2-one], the microsomal CLint at 1 μM ([1]; 37° C.) is reported as 4.4 µL/min/mg, the “mPPB (% free)” value [2, 5] is reported as 0.6 % free and the IC50 ([3]; Abs) is reported as 240 nM.
In the case of `COc1cc(-c2c[nH]c(C3COc4ccc(Oc5ccnc6c5CCC(=O)N6)cc4C3)n2)ccn1` (stereo not drawn) [Compound 104], the “MLM (CLint)” value ([1]; 37° C.) is reported as 23 µL/min/mg, the “mPPB (% free)” value [2, 5] is reported as 1.5 % free and the “pERK HCT116 (2 hr) Abs pIC50” value ([3]; Abs) is reported as 6.50.
With `O=C1CCc2c(Oc3ccc4c(c3)CC(c3nc(-c5cncc(C(F)F)c5)c[nH]3)CO4)ccnc2N1` (stereo not drawn) [Compound 105, 5-[3-[4-[5-(difluoromethyl)-3-pyridyl]-1H-imidazol-2-yl]chroman-6-yl]oxy-3,4-dihydro-1H-1,8-naphthyridin-2-one] the microsomal CLint at 1 μM ([1]; 37° C.) was 2.1 µL/min/mg, the “mPPB (% free)” value [2, 5] was 0.86 % free and the IC50 ([3]; Abs) was 178 nM.
In the case of `Cc1cc(-c2c[nH]c(C3COc4ccc(Oc5ccnc6c5CCC(=O)N6)cc4C3)n2)n(C)n1` (stereo not drawn) [Compound 106, 5-[3-[4-(2,5-dimethylpyrazol-3-yl)-1H-imidazol-2-yl]chroman-6-yl]oxy-3,4-dihydro-1H-1,8-naphthyridin-2-one], the microsomal CLint at 1 μM ([1]; 37° C.) is reported as 17.1 µL/min/mg, the “mPPB (% free)” value [2, 5] is reported as 3.0 % free and the IC50 ([3]; Abs) is reported as 275 nM.
In the case of `CC(C)(C)CCc1c[nH]c(C2COc3ccc(Oc4ccnc5c4CCC(=O)N5)cc3C2)n1` (stereo not drawn) [Compound 115, 5-[3-[4-(3,3-dimethylbutyl)-1H-imidazol-2-yl]chroman-6-yl]oxy-3,4-dihydro-1H-1,8-naphthyridin-2-one], the “mPPB (% free)” value [2, 5] is reported as 0.3 % free and the IC50 ([3]; Abs) is reported as 45.7 nM.
In the case of `CC(C)CCc1c[nH]c(C2COc3ccc(Oc4ccnc5c4CCC(=O)N5)cc3C2)n1` (stereo not drawn) [Compound 116], the “mPPB (% free)” value [2, 5] is reported as 0.23 % free and the IC50 ([3]; Abs) is reported as 67.6 nM.
With `Cn1nc(C2CC2)cc1-c1c[nH]c(C2COc3ccc(Oc4ccnc5c4CCC(=O)N5)cc3C2)n1` (stereo not drawn) [Compound 125, 5-[3-[4-(5-cyclopropyl-2-methyl-pyrazol-3-yl)-1H-imidazol-2-yl]chroman-6-yl]oxy-3,4-dihydro-1H-1,8-naphthyridin-2-one] the IC50 ([3]; Abs) was 355 nM.
For `O=C1CCc2c(Oc3ccc4c(c3)CC(c3nc(-c5cccnc5C(F)(F)F)c[nH]3)CO4)ccnc2N1` (stereo not drawn) [Compound 128, 5-[3-[4-[2-(trifluoromethyl)-3-pyridyl]-1H-imidazol-2-yl]chroman-6-yl]oxy-3,4-dihydro-1H-1,8-naphthyridin-2-one], the “mPPB (% free)” value [2, 5] was 1.2 % free and the IC50 ([3]; Abs) was 389 nM.
